The experiment has as its system L1210 leukemia ip in BDF1 mice, survival T/C. As to the kind of experiment: NCI In Vivo Anticancer Drug Screen. Data for tumor model L1210 Leukemia (intraperitoneal) in B6D2F1 (BDF1) mice. The following applies: endpoint: mean survival time, higher = longer survival. The procedure, abridged: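 Transplanted-tumor mice were given test agent; controls received vehicle only. Survival readings from the two groups were divided (treated over control).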

The mark [1] stands for this setting: dose: 100.0 mg/kg/injection, schedule: Q01DX009 (ip), vehicle: Klucel (hydroxypropylcellulose) (HPC).
Where [2] appears, read: dose: 100.0 mg/kg/injection, schedule: Q04DX002 (ip), vehicle: saline.
The mark [3] stands for this setting: dose: 200.0 mg/kg/injection, schedule: Q01DX009 (ip), vehicle: Klucel (hydroxypropylcellulose) (HPC).
The mark [4] stands for this setting: dose: 200.0 mg/kg/injection, schedule: Q04DX002 (ip), vehicle: saline.
Setting [5] is: dose: 400.0 mg/kg/injection, schedule: Q01DX009 (ip), vehicle: Klucel (hydroxypropylcellulose) (HPC).

Where “and” joins values, the source holds several entries; their conditions need not be identical. Identical values can stand only once. Inconclusive results and toxic doses are left out.

For `O=Cc1cccc(OCc2cccc([N+](=O)[O-])c2)c1`, the T/C reads like this: under setting [1], 98 % of control; (dose: 100.0 mg/kg/injection, schedule: Q04DX002 (ip), vehicle: Klucel (hydroxypropylcellulose) (HPC)) 108 % of control; under setting [2], 102 % of control; under setting [3], 102 % of control; (dose: 200.0 mg/kg/injection, schedule: Q04DX002 (ip), vehicle: Klucel (hydroxypropylcellulose) (HPC)) 105 % of control; under setting [4], 97 % of control. For the same compound, the T/C is, setting by setting: under setting [5], 95 % of control; (dose: 400.0 mg/kg/injection, schedule: Q04DX002 (ip), vehicle: Klucel (hydroxypropylcellulose) (HPC)) 97 % of control; (dose: 400.0 mg/kg/injection, schedule: Q04DX002 (ip), vehicle: saline) 108 % of control.

For `Nc1nc(N)c2nc(CNc3ccc(C(=O)NC(CCC(=O)O)C(=O)O)cc3)cnc2n1` (configuration not stated), the T/C runs as follows: (dose: 0.02 mg/kg/injection, schedule: Q01DX Z (ip), vehicle: saline) 170 % of control; (dose: 0.02 mg/kg/injection, schedule: Q01DX Z (sc), vehicle: saline) 122 % of control; (dose: 0.03 mg/kg/injection, schedule: Q01DX Z (ip), vehicle: saline) 118 % of control; (dose: 0.05 mg/kg/injection, schedule: Q01DX006 (iv), vehicle: saline) 114 % of control; (dose: 0.05 mg/kg/injection, schedule: Q01DX010 (ip), vehicle: other) 98 % of control and 112 % of control; (dose: 0.05 mg/kg/injection, schedule: Q01DX Z (im), vehicle: saline) 119 % of control. Besides, the T/C reads like this: (dose: 0.06 mg/kg/injection, schedule: Q01DX Z (ip), vehicle: saline) 105 % of control; (dose: 0.1 mg/kg/injection, schedule: Q01DX010 (ip), vehicle: other) 108 % of control; (dose: 0.1 mg/kg/injection, schedule: Q01DX Z (im), vehicle: saline) 113 % of control; (dose: 0.1 mg/kg/injection, schedule: Q01DX Z (ip), vehicle: saline) 119 % of control; (dose: 0.2 mg/kg/injection, schedule: Q01DX Z (im), vehicle: saline) 154 % of control; (dose: 0.2 mg/kg/injection, schedule: Q01DX Z (ip), vehicle: saline) 96 % of control and 105 % of control. Moreover, the T/C is, setting by setting: (dose: 0.2 mg/kg/injection, schedule: Q01DX Z (oral), vehicle: saline) 119 % of control; (dose: 0.2 mg/kg/injection, schedule: Q01DX Z (sc), vehicle: saline) 101 % of control and 114 % of control; (dose: 0.4 mg/kg/injection, schedule: Q01DX010 (ip), vehicle: other) 162 % of control; (dose: 0.5 mg/kg/injection, schedule: Q01DX001 (ip), vehicle: saline) 111 % of control and 114 % of control; (dose: 0.5 mg/kg/injection, schedule: Q01DX Z (oral), vehicle: saline) 106 % of control; (dose: 0.5 mg/kg/injection, schedule: Q01DX Z (sc), vehicle: saline) 103 % of control. The T/C was 115 % of control (dose: 1.0 mg/kg/injection, schedule: Q01DX001 (ip), vehicle: saline); 94 % of control (dose: 1.0 mg/kg/injection, schedule: Q01DX Z (ip), vehicle: saline); 117 % of control and 121 % of control (dose: 2.0 mg/kg/injection, schedule: Q01DX001 (ip), vehicle: saline); 106 % of control and 124 % of control (dose: 16.0 mg/kg/injection, schedule: Q01DX001 (ip), vehicle: saline); 96 % of control and 120 % of control (dose: 32.0 mg/kg/injection, schedule: Q01DX001 (ip), vehicle: saline); 105 % of control (dose: 64.0 mg/kg/injection, schedule: Q01DX001 (ip), vehicle: saline). Further, the T/C is, setting by setting: (dose: 128.0 mg/kg/injection, schedule: Q01DX001 (ip), vehicle: saline) 105 % of control and 86 % of control; (dose: 256.0 mg/kg/injection, schedule: Q01DX001 (ip), vehicle: saline) 100 % of control.

Regarding `CC(C)(C)C1CCC(S(C)(=O)=O)C(Cl)C1` (configuration not stated), the T/C is, setting by setting: (dose: 100.0 mg/kg/injection, schedule: Q01DX009 (ip), vehicle: saline) 110 % of control; (dose: 100.0 mg/kg/injection, schedule: Q04DX003 (ip), vehicle: saline) 102 % of control; (dose: 200.0 mg/kg/injection, schedule: Q01DX009 (ip), vehicle: saline) 106 % of control; (dose: 200.0 mg/kg/injection, schedule: Q04DX003 (ip), vehicle: saline) 96 % of control; (dose: 400.0 mg/kg/injection, schedule: Q01DX009 (ip), vehicle: saline) 102 % of control; (dose: 400.0 mg/kg/injection, schedule: Q04DX003 (ip), vehicle: saline) 105 % of control.

With `CC1(C)C2CCC1C(CO)C2` (configuration not stated), the T/C is 94 % of control under setting [1]; 96 % of control (dose: 100.0 mg/kg/injection, schedule: Q04DX003 (ip), vehicle: Klucel (hydroxypropylcellulose) (HPC)); 104 % of control under setting [3]; 107 % of control (dose: 200.0 mg/kg/injection, schedule: Q04DX003 (ip), vehicle: Klucel (hydroxypropylcellulose) (HPC)); 100 % of control under setting [5]; 102 % of control (dose: 400.0 mg/kg/injection, schedule: Q04DX003 (ip), vehicle: Klucel (hydroxypropylcellulose) (HPC)).

Turning to `CN(C)c1ccnc(N(C)C)n1`, the T/C is, setting by setting: (dose: 16.0 mg/kg/injection, schedule: Q01DX Z (ip), vehicle: methylcellulose (MC)) 96 % of control; (dose: 31.0 mg/kg/injection, schedule: Q01DX Z (ip), vehicle: methylcellulose (MC)) 98 % of control.

On to `CCOC(=O)CC1(C)OCC(c2ccccc2)O1` (configuration not stated), for which the T/C reads like this: (dose: 222.0 mg/kg/injection, schedule: Q01DX Z (ip), vehicle: saline) 106 % of control; (dose: 333.0 mg/kg/injection, schedule: Q01DX Z (ip), vehicle: saline) 86 % of control; (dose: 500.0 mg/kg/injection, schedule: Q01DX Z (ip), vehicle: saline) 91 % of control.

For `CCCCCCCCCCOc1ccc(OCCCCCCCCC)cc1`, the T/C was 94 % of control (dose: 100.0 mg/kg/injection, schedule: Q04DX003 (ip), vehicle: saline with Tween-80); 100 % of control (dose: 200.0 mg/kg/injection, schedule: Q04DX003 (ip), vehicle: saline with Tween-80); 87 % of control (dose: 400.0 mg/kg/injection, schedule: Q04DX003 (ip), vehicle: saline with Tween-80).

`O=c1ncc2[nH]c(I)nc2[nH]1`: the T/C (dose: 100.0 mg/kg/injection, schedule: Q01DX001 (ip), vehicle: carboxymethylcellulose (CMC)) is 96 % of control.

As for `CCOC(=O)C(C)(C)CCl`, the T/C is, setting by setting: under setting [1], 100 % of control; under setting [3], 94 % of control; under setting [5], 103 % of control.

Regarding `CCCCCC(=O)Oc1c(C(C)(C)C)cc([N+](=O)[O-])c(C)c1[N+](=O)[O-]`, the T/C is, setting by setting: under setting [2], 93 % of control; under setting [4], 93 % of control.

Turning to `Cc1cc(NS(=O)(=O)c2ccc(N=Nc3cc(N=Nc4ccccc4)c(N)nc3N)cc2)nc(C)n1`, the T/C is 100 % of control (dose: 100.0 mg/kg/injection, schedule: Q01DX001 (ip), vehicle: saline); 100 % of control (dose: 200.0 mg/kg/injection, schedule: Q01DX001 (ip), vehicle: saline); 105 % of control (dose: 400.0 mg/kg/injection, schedule: Q01DX001 (ip), vehicle: saline).

With `COc1ccc(Cl)cc1NC(=O)c1ccco1`, the T/C by setting is: under setting [1], 89 % of control; under setting [3], 87 % of control; under setting [5], 97 % of control.

On to `CCOC(=O)c1[nH]c(=S)[nH]c1C(=O)OCC`, for which the T/C was 102 % of control (dose: 5.0 mg/kg/injection, schedule: Q01DX001 (ip), vehicle: saline); 102 % of control (dose: 10.0 mg/kg/injection, schedule: Q01DX001 (ip), vehicle: saline); 104 % of control (dose: 20.0 mg/kg/injection, schedule: Q01DX001 (ip), vehicle: saline); 94 % of control (dose: 40.0 mg/kg/injection, schedule: Q01DX001 (ip), vehicle: saline); 95 % of control (dose: 80.0 mg/kg/injection, schedule: Q01DX001 (ip), vehicle: saline).

These data come from PubChem BioAssay AID248 (DTP/NCI, 2004).
